Tests used:
Assay in all cases: fitness (endpoint OD595 vs no drug) (fraction); higher = more growth
[1] = system: B. subtilis 168
In short: (§1)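 Fitness expresses the optical density reached at the stationary-phase transition as a fraction of the robust mean of no-drug control wells. It is capped at 1. Measurements were OD595 every 30 min for 14 h at 37 °C after inoculation of 384-well plates at OD595 0.01 (30 µl, or 55 µl for S. pneumoniae), minus the first reading.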

[2] = system: S. aureus DSM 20231
In short: as §1

[3] = system: S. pneumoniae D39V
In short: as §1
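Note: OD595 on entry to stationary phase over no-drug wells; at most 1.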

CN(C)[C@@H]1C(O)=C(C(N)=O)C(=O)[C@@]2(O)C(O)=C3C(=O)c4c(O)ccc(Cl)c4[C@@](C)(O)[C@H]3C[C@@H]12 [Chlortetracycline] + N[C@@H]1CONC1=O [Cycloserine D]
fitness
Conditions	first compound 0.012 µg/mL	first compound 0.024 µg/mL	first compound 0.0475 µg/mL	first compound 0.048 µg/mL	first compound 0.095 µg/mL	first compound 0.19 µg/mL
[1], partner 0.125 µg/mL	–	–	0.936	–	0.784	0.515
[1], partner 0.25 µg/mL	–	–	0.894	–	0.782	0.439
[1], partner 0.5 µg/mL	–	–	0.899	–	0.764	0.515
[2], partner 0.375 µg/mL	0.667	0.241	–	0.0627	–	–
[2], partner 0.75 µg/mL	0.623	0.249	–	0.0661	–	–
[2], partner 1.5 µg/mL	0.68	0.264	–	0.0906	–	–

[2], first compound 0.006 µg/mL, one replicate
Conditions	fitness
partner 0.375 µg/mL	0.804
partner 0.75 µg/mL	0.782
partner 1.5 µg/mL	0.804

CC(=O)Oc1ccccc1C(=O)O [Acetylsalicylic acid] + CO/N=C(\C(=O)N[C@@H]1C(=O)N2C(C(=O)O)=C(COC(C)=O)CS[C@H]12)c1csc(N)n1 [Cefotaxime]
fitness
Conditions	partner 0.0018 µg/mL	partner 0.0035 µg/mL	partner 0.007 µg/mL	partner 0.039 µg/mL	partner 0.078 µg/mL	partner 0.156 µg/mL	partner 0.312 µg/mL
[2], first compound 250 µg/mL	–	–	–	0.706	0.695	0.641	0.605
[2], first compound 500 µg/mL	–	–	–	0.614	0.608	0.561	0.507
[2], first compound 1000 µg/mL	–	–	–	0.509	0.443	0.343	0.148
[3], first compound 250 µg/mL	0.984	0.967	0.936	–	–	–	–
[3], first compound 500 µg/mL	≥ 1	0.992	0.962	–	–	–	–
[3], first compound 1000 µg/mL	0.97	0.89	0.823	–	–	–	–

CC(=O)Oc1ccccc1C(=O)O [Acetylsalicylic acid] + COc1ccc(C[C@H](N)C(=O)N[C@H]2[C@@H](O)[C@H](n3cnc4c(N(C)C)ncnc43)O[C@@H]2CO)cc1 [Puromycin]
fitness
Conditions	partner 0.39 µg/mL	partner 0.78 µg/mL	partner 1 µg/mL	partner 1.56 µg/mL	partner 2 µg/mL	partner 4 µg/mL
[2], first compound 250 µg/mL	0.894	0.947	–	0.88	–	–
[2], first compound 500 µg/mL	0.804	0.768	–	0.799	–	–
[3], first compound 250 µg/mL	–	–	≥ 1	–	0.954	0.898
[3], first compound 500 µg/mL	–	–	0.915	–	0.935	0.836
[3], first compound 1000 µg/mL	–	–	0.889	–	0.815	0.622

fitness, [2], one replicate
Conditions	first compound 250 µg/mL	first compound 500 µg/mL	first compound 1000 µg/mL
partner 3.12 µg/mL	0.84	0.791	0.0591
partner 6.24 µg/mL	0.821	0.767	0.0807

Source: the supplement of paper PMC10627819
